Data on 20 compounds can be found in US20240390298A1, “CYCLOHEXYL BETA-HYDROXY ALKYL AMINES AND MEDICAL USES THEREOF” (ATROGI AB, priority 2021, published 2024).

The subject of test [1] is L6-myotubes. The experiment in a line: Glucose uptake in differentiated L6-myotubes (3H-2-deoxyglucose), compared to isoproterenol. The following applies: agonist 1×10^−5 M, 50 nM 3H-2-deoxyglucose; for Emax at 10 µM: read-out: Biological example 1: glucose uptake, activity compared to that of isoproterenol. The test is classed as cell-based. As for the experimental part:
(§1) L6-myoblasts were grown in Dulbecco's Modified Eagle's Medium (DMEM) containing 1 g/L glucose supplemented with 10% fetal bovine serum, 2 mM L-Glutamine, 50 U/mL penicillin, 50 μg/mL streptomycin and 10 mM HEPES. Cells were plated at 1×10^5 cells per mL in 24-well plates. After reaching 90% confluence the cells were grown in medium containing 2% FBS for 7 days where upon cells differentiated into myotubes.
Differentiated L6-myotubes were serum-starved overnight in medium containing 0.5% fatty-acid free BSA and stimulated with an agonist, with a final concentration of 1×10^−5 M. After 1 h 40 min the cells were washed with warm glucose free medium or PBS twice and another portion of agonist was added to the glucose free medium. After 20 min the cells were exposed to 50 nM ^3H-2-deoxyglucose for 10 min before washed with ice cold glucose free medium or PBS three times and lysed with 0.2 M NaOH, 400 μL/well, for 1 h at 60° C. The cell lysate was mixed with 4 mL scintillation buffer (Emulsifier Safe, Perkin Elmer) and the radioactivity was detected in a β-counter (Tri-Carb 4810TR, Perkin Elmer). The activity for each compound is compared to that of isoproterenol.

Test [2] deals with L6-myotubes. The experiment in a line: Measurement of intracellular cAMP levels in differentiated L6 cells (alpha screen cAMP kit), compared to isoproterenol. The following applies: agonist 1×10^−5 M, 15 min; for Emax at 10 µM: Rattus norvegicus, L6, 0.25 h, read-out: Biological example 2: intracellular cAMP levels, activity compared to that of isoproterenol. The test is classed as cell-based. As for the experimental part:
as §1
Differentiated cells were serum-starved overnight and stimulated with an agonist, final concentration 1×10^−5 M, for 15 min in stimulation buffer (HBSS supplemented with 1% BSA, 5 mM HEPES and 1 mM IBMX, pH 7.4). The medium was aspirated and 100 μL of 95% EtOH was added to each well of the 24-well plate and cells were kept at −20° C. overnight. The EtOH was allowed to evaporate and 500 μL of lysis buffer (1% BSA, 5 mM HEPES and 0.3% Tween-20, pH 7.4) was added to each well. The plate was kept at −80° C. for 30 min and then at −20° C. until the day of detection when the samples were thawed. Intracellular cAMP levels were detected using an alpha screen cAMP kit (6760635D from Perkin Elmer). The activity for each compound is compared to that of isoproterenol.

Where a name gives a salt, the structure may show the parent alone.

As for `CC(=O)N[C@H]1CC[C@H](CNC[C@H](O)c2cncc(F)c2)CC1` [Example 68, N-((1R,4r)-4-((((R)-2-(5-Fluoropyridin-3-yl)-2-hydroxyethyl)amino)-methyl)cyclohexyl)acetamide], the figures for the Emax at 10 µM in the test with L6-myotubes [1] and with L6-myotubes [2] were 25 to 50% and less than 25%, respectively.
As for `CC(=O)N[C@H]1CC[C@H](CC(C)(C)NC[C@H](O)c2cncc(F)c2)CC1` [Example 87, N-((1R,4r)-4-(2-(((R)-2-(5-Fluoropyridin-3-yl)-2-hydroxyethyl)amino)-2-methylpropyl)cyclohexyl)acetamide], the “Biological example 1: glucose uptake, activity compared to that of isoproterenol” value in the test with L6-myotubes [1] is “+ + +”. The Emax at 10 µM in the test with L6-myotubes [2] is less than 25%.
With `CS(=O)(=O)N[C@H]1CC[C@H](CNC[C@H](O)c2cncc(F)c2)CC1` [Example 72, N-((1R,4r)-4-((((R)-2-(5-Fluoropyridin-3-yl)-2-hydroxyethyl)amino)methyl)-cyclohexyl)methanesulfonamide], the Emax at 10 µM in the test with L6-myotubes [1] is 25 to 50%; in the test on L6-myotubes [2] it was less than 25%.
For `O[C@@H](CNC[C@H]1CC[C@@H](O)CC1)c1cncc(F)c1` [Example 28, (1S,4s)-4-((((R)-2-(5-Fluoropyridin-3-yl)-2-hydroxyethyl)amino)-methyl)cyclohexan-1-ol] the same measures were 25 to 50% and less than 25%.
Consider `CO[C@H]1CC[C@H](CCC(C)(C)NC[C@H](O)c2cccc(F)c2)CC1.Cl` [Example 21, (R)-1-(3-Fluorophenyl)-2-((4-((1r,4S)-4-methoxycyclohexyl)-2-methyl-butan-2-yl)amino)ethan-1-ol hydrochloride], for which, in the test on L6-myotubes [1], the “Biological example 1: glucose uptake, activity compared to that of isoproterenol” value is “+ +”. The Emax at 10 µM in the test on L6-myotubes [2] is less than 25%.
For the compound `CC(=O)N[C@H]1CC[C@H](CNC[C@H](O)c2cccc(F)c2)CC1` [Example 67, N-((1R,4r)-4-((((R)-2-(3-Fluorophenyl)-2-hydroxyethyl)amino)methyl)-cyclohexyl)acetamide], the Emax at 10 µM in the test with L6-myotubes [1] was 25 to 50%; in the test on L6-myotubes [2], less than 25%.
For the compound `CO[C@H]1CC[C@H](C(C)(C)NC[C@H](O)c2cncc(F)c2)CC1` [Example 8, (R)-1-(5-Fluoropyridin-3-yl)-2-((2-((1r,4R)-4-methoxycyclohexyl)propan-2-yl)amino)ethan-1-ol], the “Biological example 1: glucose uptake, activity compared to that of isoproterenol” value with L6-myotubes [1] is given as “+ + +”. In addition, the Emax at 10 µM in the test on L6-myotubes [2] is less than 25%.
For `CC(C)(NC[C@H](O)c1cncc(F)c1)[C@H]1CC[C@H](O)CC1` [Example 40, (1R,4r)-4-(2-(((R)-2-(5-Fluoropyridin-3-yl)-2-hydroxyethyl)amino)propan-2-yl)cyclohexan-1-ol] the same measures were “+ +” and less than 25%.
Turning to `CO[C@H]1CC[C@H](CCNC[C@H](O)c2cncc(F)c2)CC1` [Example 12, (R)-1-(5-Fluoropyridin-3-yl)-2-((2-((1r,4R)-4-methoxycyclohexyl)ethyl)-amino)ethan-1-ol], the “Biological example 1: glucose uptake, activity compared to that of isoproterenol” value in the test on L6-myotubes [1] was “+ +”. Moreover, the Emax at 10 µM in the test on L6-myotubes [2] is less than 25%.
As for `CC(C)(C[C@H]1CC[C@H](NS(C)(=O)=O)CC1)NC[C@H](O)c1cccc(C(F)(F)F)n1` [Example 152, N-((1S,4r)-4-(2-(((S)-2-Hydroxy-2-(6-(trifluoromethyl)pyridin-2-yl)-ethyl)amino)-2-methylpropyl)cyclohexyl)methanesulfonamide dihydrochloride], in the test on L6-myotubes [1], the “Biological example 1: glucose uptake, activity compared to that of isoproterenol” value is recorded as “+ +”. Moreover, the Emax at 10 µM in the test on L6-myotubes [2] is less than 25%.
Take `CN(C)S(=O)(=O)[C@H]1CC[C@@H](CC(C)(C)NC[C@H](O)c2cncc(F)c2)CC1` [Example 189, (1S,4s)-4-(2-(((R)-2-(5-Fluoropyridin-3-yl)-2-hydroxyethyl)amino)-2-methylpropyl)-N,N-dimethylcyclohexane-1-sulfonamide dihydrochloride]: the “Biological example 1: glucose uptake, activity compared to that of isoproterenol” value with L6-myotubes [1] is “+ + +”. Also, the “Biological example 2: intracellular cAMP levels, activity compared to that of isoproterenol” value in the test on L6-myotubes [2] is recorded as “+ +”.
Take `CO[C@H]1CC[C@H](CCNC[C@H](O)c2cccc(F)c2)CC1` [Example 11, (R)-1-(3-Fluorophenyl)-2-((2-((1r,4R)-4-methoxycyclohexyl)ethyl)amino)-ethan-1-ol]: the values for the Emax at 10 µM in the test on L6-myotubes [1] and in the test on L6-myotubes [2] were 25 to 50% and less than 25%, respectively.
With `CC(C)(C[C@H]1CC[C@H](NS(=O)(=O)C2CC2)CC1)NC[C@H](O)c1cccc(F)c1` [Example 161, N-((1R,4r)-4-(2-(((R)-2-(3-Fluorophenyl)-2-hydroxyethyl)amino)-2-methypropyl)cyclohexyl)cyclopropanesulfonamide hydrochloride], the “Biological example 1: glucose uptake, activity compared to that of isoproterenol” value in the test on L6-myotubes [1] is “+ +”. Besides, the Emax at 10 µM in the test on L6-myotubes [2] was less than 25%.
The like results for `CC(C)(C[C@H]1CC[C@@H](S(N)(=O)=O)CC1)NC[C@H](O)c1cccc(F)c1.Cl` [Example 196, (1S,4s)-4-(2-(((R)-2-(3-Fluorophenyl)-2-hydroxyethyl)amino)-2-methylpropyl)cyclohexane-1-sulfonamide hydrochloride] were, in that order, “+ + +” and less than 25%.
Regarding `O=C(N[C@H]1CC[C@H](CNC[C@H](O)c2cncc(F)c2)CC1)c1ccccc1` [Example 70, N-((1R,4r)-4-((((R)-2-(5-Fluoropyridin-3-yl)-2-hydroxyethyl)amino)methyl)-cyclohexyl)benzamide], the Emax at 10 µM was 25 to 50% in the test on L6-myotubes [1] and less than 25% with L6-myotubes [2].
As for `CO[C@H]1CC[C@@H](CCNC[C@H](O)c2cncc(F)c2)CC1` [Example 10, (R)-1-(5-Fluoropyridin-3-yl)-2-((2-((1s,4S)-4-methoxycyclohexyl)ethyl)-amino)ethan-1-ol], the “Biological example 1: glucose uptake, activity compared to that of isoproterenol” value in the test on L6-myotubes [1] is given as “+ + +”. Further, in the test on L6-myotubes [2], the Emax at 10 µM is less than 25%.
For `CC(C)(C[C@H]1CC[C@@H](NC(=O)OC(C)(C)C)CC1)NC[C@H](O)c1cccc(C#N)n1` [Example 133, tert-Butyl ((1R,4s)-4-(2-(((5)-2-(6-Cyanopyridin-2-yl)-2-hydroxyethyl)-amino)-2-methylpropyl)cyclohexyl)carbamate] the same measures were “+ +” and less than 25%.
Regarding `CC(=O)N[C@H]1CC[C@H](CC(C)(C)NC[C@H](O)c2cccc(C(F)(F)F)n2)CC1` [Example 151, N-((1S,4r)-4-(2-(((S)-2-Hydroxy-2-(6-(trifluoromethyl)pyridin-2-yl)-ethyl)amino)-2-methylpropyl)cyclohexyl)acetamide dihydrochloride], the “Biological example 1: glucose uptake, activity compared to that of isoproterenol” value with L6-myotubes [1] is recorded as “+ + +”. Also, the Emax at 10 µM in the test with L6-myotubes [2] is less than 25%.
On to `CC(C)(NC[C@H](O)c1cccc(F)c1)[C@H]1CC[C@H](O)CC1` [Example 38, (1R,4r)-4-(2-(((R)-2-(3-Fluorophenyl)-2-hydroxyethyl)amino)propan-2-yl)cyclohexan-1-ol], for which, in the test with L6-myotubes [1], the “Biological example 1: glucose uptake, activity compared to that of isoproterenol” value is recorded as “+ +”. The Emax at 10 µM with L6-myotubes [2] is less than 25%.
`CC(C)(CC[C@H]1CC[C@H](O)CC1)NC[C@H](O)c1cccc(F)c1` [Example 61, (1S,4r)-4-(3-(((R)-2-(3-Fluorophenyl)-2-hydroxyethyl)amino)-3-methyl-butyl)cyclohexan-1-ol]: the Emax at 10 µM in the test with L6-myotubes [1] was 25 to 50%; in the test with L6-myotubes [2], less than 25%.
